Assay results from ChEMBL document CHEMBL3102801, “Synthesis and antiproliferative activity of new derivatives containing the polycyclic system 5,7:7,13-dimethanopyrazolo[3,4-b]pyrazolo[3',4':2,3]azepino[4,5-f]azocine” (Eur J Med Chem, 2014).

Assays:
Format in all cases: functional
HCT-116 [1] = assay: Cell cycle arrest in human HCT116 cells assessed as accumulation of G2-M phase at 10 uM after 48 hrs using propidium iodide staining by flow cytometric analysis (reference value: 19.2%)
HCT-116 [2] = assay: Growth inhibition of human HCT116 cells after 48 hrs by sulforhodamine B assay; details: HCT-116, 48 h
K562 = assay: Growth inhibition of human K562 cells after 48 hrs by sulforhodamine B assay; details: K562, 48 h
MDA-MB-231 = assay: Cell cycle arrest in human MDA-MB-231 cells assessed as accumulation of sub-G0-G1 phase at 10 uM after 48 hrs using propidium iodide staining by flow cytometric analysis (reference value: 8.4%)
[3] = Growth inhibition of human UO31 cells after 48 hrs by sulforhodamine B assay; details: UO-31, 48 h
IGROV-1 = assay: Growth inhibition of human IGROV1 cells after 48 hrs by sulforhodamine B assay; details: IGROV-1, 48 h
SK-MEL-2 = assay: Growth inhibition of human SK-MEL-2 cells after 48 hrs by sulforhodamine B assay; details: SK-MEL-2, 48 h
NCI-H226 = assay: Growth inhibition of human NCI-H226 cells after 48 hrs by sulforhodamine B assay; details: NCI-H226, 48 h
[4] = Growth inhibition of human SF539 cells after 48 hrs by sulforhodamine B assay; details: SF-539, 48 h

C=C1c2c(C)nn(-c3ccc(OC)cc3)c2N(C)C23CC1C1(C)c4c(C)nn(-c5ccc(OC)cc5)c4N(C)C(C)(CC12)C3 (centres undefined)
Activity (HCT-116 [1]): 10.3%
GI50 (HCT-116 [2]): 2.82 µM
GI50 (K562): 3.6 µM
Activity (MDA-MB-231): 4.6%
GI50 [3]: 2.61 µM
GI50 (IGROV-1): 7.54 µM
GI50 (SK-MEL-2): 3.23 µM
GI50 (NCI-H226): 4.44 µM
GI50 [4]: 3.16 µM
